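48-hour exposure; five concentrations; linearly interpolated endpoints. Abbreviation: GI50, concentration required for 50% inhibition of growth. TGI: concentration producing complete growth inhibition.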

Test systems include UACC-62 melanoma; SK-MEL-28 melanoma; MALME-3M melanoma; SK-MEL-5 melanoma; SK-MEL-2 melanoma; NCI-H522 lung; OVCAR-5 ovarian; UO-31 renal; SNB-19 CNS; RXF 393 renal.
Common to all, as to experiment: NCI anticancer screen, dose series, 48 h

On to `Nc1ncnc2c1ccn2-c1cccc(NC(=O)c2ccc(N3CCOCC3)c(C(F)(F)F)c2)c1`, for which the GI50 was 1.99 µM in the test on UACC-62 melanoma; 4.76 µM with SK-MEL-28 melanoma; 3.08 µM in the test on MALME-3M melanoma; 2.56 µM in the test with SK-MEL-5 melanoma; 1.83 µM in the test on SK-MEL-2 melanoma; 1.74 µM with NCI-H522 lung. Besides, the GI50 in the test with OVCAR-5 ovarian is 3 µM; with UO-31 renal, 2.8 µM; in the test with SNB-19 CNS, 3.96 µM; in the test with RXF 393 renal, 2.05 µM. Besides, the TGI amounted to 5.78 µM with UACC-62 melanoma; 23 µM with SK-MEL-28 melanoma; 13.2 µM in the test with MALME-3M melanoma; 13.2 µM with SK-MEL-5 melanoma; 5.1 µM in the test with SK-MEL-2 melanoma; 5.2 µM in the test on NCI-H522 lung. In addition, the TGI is 21.1 µM in the test on OVCAR-5 ovarian, 6.73 µM with UO-31 renal, 13 µM in the test with SNB-19 CNS and 5.1 µM in the test on RXF 393 renal.

As to `C#CCNC(=O)CC[C@@H](C)[C@H]1CC[C@H]2[C@@H]3CC[C@@H]4CC(=O)CC[C@]4(C)[C@H]3CC[C@]12C`, the GI50 was 9.02 µM in the test on UACC-62 melanoma; 16.8 µM in the test with SK-MEL-28 melanoma; 14 µM in the test on MALME-3M melanoma; 8.71 µM in the test with SK-MEL-5 melanoma; 16.9 µM in the test on SK-MEL-2 melanoma; 3.69 µM in the test on NCI-H522 lung. Also, the GI50 is 22.1 µM with OVCAR-5 ovarian, 0.192 µM with UO-31 renal, 24.3 µM in the test with SNB-19 CNS and 14 µM with RXF 393 renal. For the same compound, the TGI with UACC-62 melanoma came out at 28.6 µM; with SK-MEL-28 melanoma it was 36 µM; in the test on MALME-3M melanoma, 31.7 µM; with SK-MEL-5 melanoma, 23.2 µM; in the test with SK-MEL-2 melanoma, 35.8 µM; in the test with NCI-H522 lung, 16.6 µM. Moreover, the TGI in the test on OVCAR-5 ovarian came to 47.1 µM; in the test on UO-31 renal, 0.424 µM; with SNB-19 CNS it was 71 µM; with RXF 393 renal it was 31.7 µM.

In the case of `COc1cccc(/C=N/[N-]C(N)=O)c1[O-].[Co+2].[OH3+].c1ccncc1`, the TGI in the test on UACC-62 melanoma, with SK-MEL-28 melanoma, in the test on MALME-3M melanoma, in the test on SK-MEL-5 melanoma, in the test on SK-MEL-2 melanoma and in the test with NCI-H522 lung was over 100 µM each time. Moreover, the TGI in the test on OVCAR-5 ovarian, in the test with UO-31 renal and with RXF 393 renal was over 100 µM each time.

As for `O=C1OC(c2ccccc2Br)=N/C1=C/c1ccccc1`, the TGI is over 100 µM with UACC-62 melanoma; over 100 µM in the test on SK-MEL-28 melanoma; 45.5 µM with MALME-3M melanoma; over 100 µM with SK-MEL-5 melanoma; 41.7 µM in the test with SK-MEL-2 melanoma; 72.2 µM with NCI-H522 lung. For the same compound, the TGI in the test with OVCAR-5 ovarian was over 100 µM; in the test with UO-31 renal it was over 100 µM; in the test on SNB-19 CNS, 96.8 µM.

For the compound `c1cc(CSc2ncnc3nc[nH]c23)ccn1`, the TGI in the test on UACC-62 melanoma, in the test with SK-MEL-28 melanoma, with MALME-3M melanoma, in the test on SK-MEL-5 melanoma, with SK-MEL-2 melanoma and with NCI-H522 lung was over 100 µM in each case. The TGI in the test with OVCAR-5 ovarian, in the test with UO-31 renal, with SNB-19 CNS and with RXF 393 renal was over 100 µM in each case.

On to `CC1OC(CO)(n2cnc3c(N)ncnc32)C(O)C1O` (stereo unspecified), for which the TGI in the test on UACC-62 melanoma, with SK-MEL-28 melanoma, in the test on MALME-3M melanoma, in the test on SK-MEL-5 melanoma, with SK-MEL-2 melanoma and in the test on NCI-H522 lung was over 100 µM throughout. The TGI in the test with OVCAR-5 ovarian, in the test on UO-31 renal, with SNB-19 CNS and in the test with RXF 393 renal was over 100 µM each time.

Consider `COc1cc(N(CCCl)CCCl)ccc1/C=N\NC(=O)c1cccnc1`, for which the GI50 in the test on UACC-62 melanoma is 10.5 µM; in the test with SK-MEL-28 melanoma, 48.4 µM; with MALME-3M melanoma, 38.3 µM; with SK-MEL-5 melanoma, 16.4 µM; in the test on SK-MEL-2 melanoma it was 28 µM; in the test with NCI-H522 lung it was 21.8 µM. The GI50 with OVCAR-5 ovarian is 8.34 µM; with UO-31 renal, 23.8 µM; in the test with SNB-19 CNS it was 52.8 µM; with RXF 393 renal it was 24.1 µM. Further, the TGI with UACC-62 melanoma is 29.5 µM; with SK-MEL-28 melanoma, over 100 µM; in the test on MALME-3M melanoma, over 100 µM; in the test with SK-MEL-5 melanoma, 36 µM; with SK-MEL-2 melanoma, 62 µM; in the test on NCI-H522 lung, 65.8 µM. In addition, the TGI in the test on OVCAR-5 ovarian is 60.1 µM; in the test on UO-31 renal, 79.1 µM; in the test on SNB-19 CNS, over 100 µM; in the test with RXF 393 renal, 78.5 µM.

With `NC(CSCSCC(N)C(=O)O)C(=O)O` (stereo unspecified), the TGI with UACC-62 melanoma, in the test on SK-MEL-28 melanoma, with MALME-3M melanoma, in the test on SK-MEL-5 melanoma, in the test with SK-MEL-2 melanoma and in the test on NCI-H522 lung was over 225 µM throughout. For the same compound, the TGI with OVCAR-5 ovarian, in the test with UO-31 renal, in the test with SNB-19 CNS and in the test on RXF 393 renal was over 225 µM throughout.

Turning to `CCCCCCCCCCCCCCCCCCOc1ccccc1COP(=O)(O)OOCC[N+](C)(C)C`, the GI50 in the test with UACC-62 melanoma was 0.901 µM; in the test with SK-MEL-28 melanoma, 1.59 µM; in the test on MALME-3M melanoma, 1.16 µM; in the test on SK-MEL-5 melanoma, 0.813 µM; in the test on SK-MEL-2 melanoma, 1.71 µM; with NCI-H522 lung, 1.73 µM. Further, the GI50 in the test on OVCAR-5 ovarian was 1.51 µM; in the test on UO-31 renal it was 1.27 µM; in the test with SNB-19 CNS, 1.44 µM; in the test on RXF 393 renal, 0.911 µM. The TGI in the test on UACC-62 melanoma was determined as 2.82 µM; in the test with SK-MEL-28 melanoma, 6.2 µM; in the test on MALME-3M melanoma, 3.21 µM; in the test on SK-MEL-5 melanoma, 1.5 µM; in the test on SK-MEL-2 melanoma it was 9.65 µM; in the test on NCI-H522 lung, 13.1 µM. Besides, the TGI was found to be 6.86 µM in the test with OVCAR-5 ovarian, 6.76 µM in the test with UO-31 renal, 7.76 µM in the test with SNB-19 CNS and 1.96 µM with RXF 393 renal.

In the case of `O=c1oc2ccccc2n1P(=O)(Oc1ccc(Cl)cc1)n1c(=O)oc2ccccc21`, the TGI in the test on UACC-62 melanoma, in the test with SK-MEL-28 melanoma, in the test on MALME-3M melanoma, in the test on SK-MEL-5 melanoma, in the test with SK-MEL-2 melanoma and with NCI-H522 lung was over 100 µM throughout. Moreover, the TGI with OVCAR-5 ovarian, in the test on UO-31 renal, with SNB-19 CNS and with RXF 393 renal was over 100 µM in each case.

With `Cc1cc(N=Cc2c(CO)cnc(C)c2O)c(N=Cc2c(CO)cnc(C)c2O)cc1C`, the TGI with UACC-62 melanoma, with SK-MEL-28 melanoma, in the test on MALME-3M melanoma, in the test on SK-MEL-5 melanoma, in the test on NCI-H522 lung and in the test on OVCAR-5 ovarian was over 100 µM each time. Moreover, the TGI with SNB-19 CNS and in the test on RXF 393 renal was over 100 µM throughout.

For the compound `CCOC(=O)c1cc([N+](=O)[O-])c(Sc2ncnc3nc[nH]c23)c([N+](=O)[O-])c1`, the TGI with UACC-62 melanoma turned out to be 11.9 µM; in the test on SK-MEL-28 melanoma, 29.2 µM; in the test with MALME-3M melanoma it was 18.1 µM; with SK-MEL-5 melanoma it was 23 µM; in the test with SK-MEL-2 melanoma, 24.6 µM; in the test on NCI-H522 lung it was 2.34 µM. Moreover, the TGI in the test with OVCAR-5 ovarian is 5.15 µM; in the test on UO-31 renal, 7.08 µM; with SNB-19 CNS it was 32.4 µM; in the test with RXF 393 renal, 23.3 µM.

With `CON[N+]([O-])=NC(C)C`, the TGI with UACC-62 melanoma, with SK-MEL-28 melanoma, with MALME-3M melanoma, in the test with SK-MEL-5 melanoma, with SK-MEL-2 melanoma and in the test on NCI-H522 lung was over 100 µM in each case. The TGI with OVCAR-5 ovarian, in the test with UO-31 renal, in the test on SNB-19 CNS and with RXF 393 renal was over 100 µM in each case.

Take `O=C1CCC2COc3ccc(O)c1c32` (stereo unspecified): the TGI was over 100 µM in the test on UACC-62 melanoma; over 100 µM in the test on SK-MEL-28 melanoma; over 100 µM with SK-MEL-5 melanoma; 95.9 µM in the test with SNB-19 CNS; over 100 µM in the test with RXF 393 renal.

Take `CC(C)(C)CI`: the TGI with UACC-62 melanoma is over 100 µM; with SK-MEL-28 melanoma it was over 100 µM; in the test on MALME-3M melanoma, 46.6 µM; with SK-MEL-5 melanoma, 30.9 µM; in the test with SK-MEL-2 melanoma, 37.6 µM; in the test with NCI-H522 lung it was 45.2 µM. Moreover, the TGI with OVCAR-5 ovarian was over 100 µM; with UO-31 renal it was over 10 µM; in the test with SNB-19 CNS, 89.1 µM; in the test on RXF 393 renal, 33.7 µM.

Values taken from PubChem BioAssay (NCI).
